Like-named read-outs stand apart in the source and are kept apart here.
Experiments:
Format in all cases: cell-based
[1] = test system: cancer cell lines; experiment: Correlation of gene expression with PRISM compound sensitivity across cell lines (gene:compound correlate pairs)
Protocol: This list of genes (based upon gene expression and gene dependency) was analyzed by Pearson correlation with the compound sensitivity data across the training cell lines. Correlation values, p values, q values and local false discovery rates were calculated. This analysis was repeated using the same set of compounds and genes on the test set of cell lines.
A negative correlation means that the importance of the expression of that gene to cell health was linked to increased compound sensitivity. • compound gene dep train pvalue: Measure of significance for this association. • compound gene dep test corr: Correlation of gene dependency with compound sensitivity in the test data set. • TNBCType train: Classification of association of the compound sensitivity with the IM, MSL and M cell line classes in the training data set. • DTIO Corr train: Association of the compound sensitivity with the DetermaIO cell line classes in the training data set. • TNBCType test: Classification of the association of the compound sensitivity with the IM, MSL and M cell line classes in the test data set. • DTIO Corr test: Association of the compound sensitivity with the DetermaIO cell line classes in the test data set.

[2] = test system: cancer cell lines classified IM, MSL, M; experiment: PRISM screen compound sensitivity correlated with IM, MSL and M subtype of cell lines (101 gene signature); details: for TNBCType train: 101 gene signature
[3] = test system: cancer cell lines, DetermaIO classes; experiment: Association of PRISM compound sensitivity with DetermaIO (DTIO) cell line classes
[4] = correlation of PRISM compound sensitivity with IM subtype correlation, test cell set (188 cell lines)
[5] = correlation of PRISM compound sensitivity with M subtype correlation, test cell set (188 cell lines)
[6] = correlation of PRISM compound sensitivity with MSL subtype correlation, test cell set (188 cell lines)
[7] = correlation of PRISM compound sensitivity with DTIO (DetermaIO), test cell set (188 cell lines)
[8] = correlation of PRISM compound sensitivity with DTIO (DetermaIO), training cell set (371 cell lines)
[9] = correlation of compound sensitivity with DetermaIO (DTIO), test set
[10] = correlation of compound sensitivity with DetermaIO (DTIO), training set
[11] = correlation of PRISM compound sensitivity with DTIO, test cell set
[12] = correlation of PRISM compound sensitivity with DTIO, training cell set
[13] = correlation of PRISM compound sensitivity with IM subtype correlation, test cell set
[14] = correlation of PRISM compound sensitivity with M subtype correlation, test cell set
[15] = correlation of PRISM compound sensitivity with MSL subtype correlation, test cell set
[16] = subtype (IM, MSL or M) with which PRISM compound sensitivity is negatively correlated, training cell set
[17] = subtype (IM, MSL or M) with which compound sensitivity is negatively correlated, training cell set (371 cell lines)
[18] = subtype (IM, MSL or M) assigned to the compound by negative correlation of PRISM sensitivity with subtype, training cell set (371 cell lines)

Row | Compound | IM Corr test [2, 4] | M Corr test [2, 5] | MSL Corr test [2, 6] | DTIO Corr test [3, 11] | DTIO Corr train [3, 12] | further results
1 | Cc1cc(CN2CCN(c3c(Br)cnc4nc(-c5ccc(N6CCN(C)CC6)cc5)[nH]c34)CC2)no1 [CCT137690] | −0.03424 | −0.09289 | −0.02426 |  |  | compound gene train corr [1]: −0.1607
2 | COc1cc2c(NC3CCN(C(C)C)CC3)nc(N3CCC(F)(F)CC3)nc2cc1OCCCN1CCCC1 [UNC0642] | −0.2049 | 0.1456 | 0.1789 |  |  | DTIO Corr test [3, 7]: −0.1219; DTIO Corr train [3, 8]: −0.0704; DTIO Corr test [3, 9]: −0.1219; DTIO Corr train [3, 10]: −0.0704; compound gene test corr [1]: −0.295; compound gene train corr [1]: −0.1787
3 | CCOC(=O)c1ncc2[nH]c3ccc(OCc4ccccc4)cc3c2c1COC.Cl [ZK-93423] |  |  |  | 0.1767 | 0.1098 | DTIO Corr test [3, 9]: 0.1767; DTIO Corr train [3, 10]: 0.1098; compound gene test corr [1]: −0.2447; compound gene train corr [1]: −0.1712; IM Corr test [2, 13]: 0.2068; M Corr test [2, 14]: −0.1479; MSL Corr test [2, 15]: −0.01274
4 | Cc1occc(=O)c1[O-].Cc1occc(=O)c1[O-].[O]=[V+2] [bis(maltolato)oxovanadium(IV)] |  |  |  |  |  | compound gene train corr [1]: −0.1081
5 | CC[C@H](C)[C@@H]1NC(=O)[C@H](Cc2ccc(O)cc2)NC(=O)[C@@H](N)CSSC[C@@H](C(=O)N2CCC[C@H]2C(=O)N[C@@H](CC(C)C)C(=O)NCC(N)=O)NC(=O)[C@H](CC(N)=O)NC(=O)[C@H](CCC(N)=O)NC1=O [oxytocin] |  |  |  | −0.07667 | 0.04167 | IM Corr test [2, 13]: −0.06688; M Corr test [2, 14]: 0.01789; MSL Corr test [2, 15]: −0.03975; TNBCType train [2, 16]: MSL
6 | CN1C(=O)C(N2CCCCC2)S/C1=C\C(=O)O (centres unmarked) [ozolinone] | −0.1322 | −0.01029 | −0.06039 | −0.09683 | 0.04306 | TNBCType train [2, 17]: MSL
7 | COc1cc(/C=C/c2ccc(O)cc2)cc(OC)c1 [pterostilbene] |  |  |  |  |  | DTIO Corr test [3]: −0.06647; DTIO Corr train [3]: −0.0588; IM Corr test [2]: −0.08513; M Corr test [2]: 0.06063; MSL Corr test [2]: −0.05713
8 | CNC(=O)c1cnn(-c2nc(N)c3ncn([C@@H]4O[C@H](CO)[C@@H](O)[C@H]4O)c3n2)c1 [regadenoson] | −0.08832 | 0.02954 | −0.05759 | −0.1015 | −0.1586 | 
9 | COC(=O)CC[C@@H]1N=C(c2ccccn2)c2cc(Br)ccc2-n2c(C)cnc21 [remimazolam] | 0.03785 | −0.0431 | −0.1059 |  |  | DTIO Corr test [3, 7]: −0.03395; DTIO Corr train [3, 8]: −0.02892; TNBCType train [2, 18]: MSL
10 | COc1ccc([C@H]2CNC(=O)C2)cc1OC1CCCC1 [rolipram-S(+)] | −0.03939 | −0.06383 | −0.06426 |  |  | DTIO Corr test [3, 7]: −0.07222; DTIO Corr train [3, 8]: −0.1043
11 | C=C1CC[C@H](O)C/C1=C/C=C1\CCC[C@]2(C)[C@@H]([C@H](C)CC[C@@H](O)C(C)(C)O)CC[C@@H]12 [secalciferol] | −0.1254 | 0.07866 | −0.05502 | −0.09515 | −0.06151 | 
12 | C/C(=N\NC(=N)N)c1cc(NC(=O)CCCCCCCCC(=O)Nc2cc(/C(C)=N/NC(=N)N)cc(/C(C)=N/NC(=N)N)c2)cc(/C(C)=N/NC(=N)N)c1 [semapimod] |  |  |  | 0.207 | 0.01264 | IM Corr test [2, 13]: 0.1267; M Corr test [2, 14]: −0.09225; MSL Corr test [2, 15]: −0.0812; TNBCType train [2, 16]: MSL
13 | COc1ccc(-c2cc(=O)c3c(OC)c(OC)c(OC)c(OC)c3o2)cc1 [tangeritin] |  |  |  | −0.01838 | −0.09411 | IM Corr test [2, 13]: −0.06559; M Corr test [2, 14]: 0.04891; MSL Corr test [2, 15]: −0.06252
14 | c1cc2c(cc1C1CCCCC1)c1c3n2CCNC3CCC1 (centres unmarked) [tetrindole] | −0.02376 | 0.06046 | 0.06072 | −0.04907 | −0.09692 | 
15 | CCN=C1N[C@@H]2[C@@H](O)[C@H](O)[C@@H](CO)O[C@@H]2S1 [thiamet-g] |  |  |  | 0.003014 | 0.08206 | IM Corr test [2, 13]: −0.00247; M Corr test [2, 14]: −0.01394; MSL Corr test [2, 15]: −0.01406; TNBCType train [2, 16]: MSL
16 | O=C(NCc1ccccc1)c1csc(Nc2ccncn2)n1 [thiazovivin] | 0.0391 | −0.1082 | −0.2135 | 0.04845 | 0.03374 | TNBCType train [2, 17]: MSL
17 | C[CH2][Hg][S]c1ccccc1C(=O)[O-].[Na+] [thiomersal] | 0.1417 | −0.2551 | −0.1237 |  |  | DTIO Corr test [3, 7]: 0.0287; DTIO Corr train [3, 8]: −0.05708; DTIO Corr test ([3]; correlation of compound sensitivity with DTIO, test set): 0.0287; DTIO Corr train ([3]; correlation of compound sensitivity with DTIO, training set): −0.05708
18 | COc1cc(C[C@@H]2NCCc3cc(O)c(O)cc32)cc(OC)c1OC [trimethoquinol] | −0.06802 | −0.00108 | −0.05303 | −0.05537 | −0.0983 | TNBCType train [2, 17]: MSL
19 | COc1cc2ncnc(Nc3cccc(Cl)c3)c2cc1OC [tyrphostin-AG-1478] | −0.09525 | 0.2259 | 0.3434 |  |  | DTIO Corr test [3, 7]: 0.02894; DTIO Corr train [3, 8]: −0.0761
20 | CN[C@H]1CN(c2ccc3c(=O)c(C(=O)O)cn(-c4nccs4)c3n2)C[C@@H]1OC [voreloxin] |  |  |  | 0.01495 | −0.04486 | IM Corr test [2, 13]: 0.02919; M Corr test [2, 14]: −0.09678; MSL Corr test [2, 15]: −0.06474; TNBCType train [2, 16]: MSL
21 | Cc1nn(C)c2c1C(c1cccc(Cl)c1)=NCCN2 [zometapine] | −0.1347 | 0.04602 | −0.04215 | −0.08271 | 0.09146 | TNBCType train [2, 17]: MSL
22 | PF-477736 | 0.05795 | −0.1644 | −0.1066 | −0.03209 | −0.01779 | 
23 | Ro-25-6981 |  |  |  | −0.1247 | −0.07012 | IM Corr test [2, 13]: −0.1513; M Corr test [2, 14]: 0.04707; MSL Corr test [2, 15]: −0.0147
24 | iodoquinol | 0.03942 | −0.09894 | −0.104 |  |  | DTIO Corr test [3, 7]: 0.03163; DTIO Corr train [3, 8]: −0.06766; TNBCType train [2, 18]: MSL
25 | repsox |  |  |  |  |  | DTIO Corr test [3]: −0.03254; DTIO Corr train [3]: −0.05665; IM Corr test [2]: −0.07924; M Corr test [2]: 0.1062; MSL Corr test [2]: 0.08697
26 | salvianolic-acid-B | 0.001211 | −0.08646 | −0.06128 | 0.002256 | −0.1092 | TNBCType train [2, 17]: MSL
